The test system of data set [1] is KB-3.1: human cervical carcinoma. Nature of the data set: Growth inhibition experiments (GI50), KB-3.1. Particulars: Table 1; KB-3.1. It is filed as cell-based.
For data set [2], the system named is HCT-116 colon carcinoma cell line. Nature of the data set: Growth inhibition experiments (MTT, 5 d), HCT-116. It is filed as cell-based, human. As to conditions: Table 1; HCT-116; read-out: GI50 values HCT-116. The method, then:
(§1) Cells were seeded at 6×10^3 cells per well of 96-well plates (Corning CellBind®) in 180 μl complete medium and directly treated with chondramides dissolved in methanol in a serial dilution. Each compound was tested in duplicate for 5 d, as well as the internal methanol control. After 5 d incubation, 20 μl of 5 mg/ml MTT (Mosmann, T. (1983). Rapid Colorimetric Assay for Cellular Growth and Survival: Application to Proliferation and Cytotoxicity Assays. J. Immunol. Meth. 65, 55-63) in PBS was added per well and it was further incubated for 2 h at 37° C. The medium was then discarded and cells were washed with 100 μl PBS before adding 100 μl 2-propanol/10 N HCl (250:1) in order to dissolve formazan granules. The absorbance at 570 nm was measured using a microplate reader (EL808, Bio-Tek Instruments Inc.), and cell viability was expressed as percentage relative to the respective methanol control. GI50 values were obtained by sigmoidal curve fitting. Testing of fractions was performed likewise using 1.2×10^4 cells per well. Samples were dissolved in cell culture medium and cells were treated for 2 d before adding MTT. Viability was expressed relative to the untreated control.

The test system of data set [3] is human U-2 OS osteosarcoma cell line. Kind of data set: Growth inhibition experiments (MTT, 5 d), U-2 OS. As to conditions: Table 1; U-2 OS; read-out: GI50 values U-2 OS. It is filed as cell-based. The method, then: as §1
In data set [4] the test system is fibroblast cell line MRC5. Kind of data set: Growth inhibition experiments (MTT, 5 d), MRC5. It is filed as cell-based, human. Particulars: Table 1. How it is done:
(§2) With primary cells (HUVEC, human umbilical vein endothelial cells) and the fibroblast cell line MRC5 this is not the case. Whereas chondramides A˜C are comparably active on both, cancer and non-cancerous cells, brominated chondramide C3 analogs are on average by factor 2-4 less toxic for non-cancerous cells. Accordingly they show a higher selectivity.
as §1

In data set [5] the test system is HUVEC, human umbilical vein endothelial cells (primary cells). Nature of the data set: Growth inhibition experiments (MTT, 5 d), HUVEC. Particulars: Table 1. The format is cell-based.
Description: as §2
(§3) Cell lines were obtained from the American Type Culture Collection (ATCC) and the German Collection of Microorganisms and Cell Cultures (Deutsche Sammlung für Mikroorganismen and Zellkulturen, DSMZ), and HUVEC (single donor) were purchased from PromoCell. Cells were cultured under the conditions recommended by the respective depositor in a standard humidified incubator at 37° C. with 5% CO2.
as §1

The target in data set [6] is T1, pyrene-labeled rabbit muscle actin (Oryctolagus cuniculus, UniProt P68135).
T1 construct: pyrene-labeled rabbit muscle actin; purchased Cytoskeleton, Inc; host or cells: rabbit muscle (tissue-derived; inferred from the name)
Kind of data set: Actin polymerization assay (pyrene actin fluorescence). Particulars: 20 μM derivative, 5 μM pyrene actin, non-polymerizing buffer, followed over 85 min. It is filed as biochemical. The method, then:
A final concentration of 20 μM for each derivative was chosen and polymerization was followed over 85 min.
Fluorescence-based actin polymerization assays were performed using pyrene muscle actin (Cytoskeleton, Inc.) according to the supplier's protocol. Chondramides were dissolved in non-polymerizing buffer (5 mM Tris-HCl pH 8.0, 0.2 mM CaCl2, 0.2 mM ATP, 1 mM DTT) and mixed with pyrene actin diluted in the same buffer to give a final concentration of 20 μM chondramide and 5 μM actin. Samples were prepared in black, low-volume 384-well plates (Corning, NBS™ surface). The fluorescence at 405 nm (excitation at 360 nm) was scanned every 30 s for 85 min at 37° C. on a microplate reader (Spectramax M5^e, Molecular Devices). Experiments were performed in duplicates and the average relative fluorescence of polymerizing pyrene actin is given. Slopes were calculated in the linear range of kinetic measurements.

For a further data set, the system named is L-929. Nature of the data set: Growth inhibition experiments (GI50), L-929. It is filed as cell-based. Particulars: Table 1.
Data set [7] has as its system multidrug resistant (MDR) KB-V.1 cell line. Nature of the data set: Growth inhibition experiments (MTT, 5 d), KB-V.1. The format is cell-based. As to conditions: Table 1. How it is done:
Cancer Inst. 90, 1559-1563). […] The same applies for most novel derivatives, solely a hydroxyl group at C2′ of the polyketide segment instead of methoxy or simply hydrogen leads to an approximately 10-fold reduced potency. GI50 values of glycosylated derivatives were not determinable precisely in the assay's concentration range.
as §1

Data set [8] has as its system panel of cell lines derived from various origins and tissues (cancer cell lines, non-cancerous cell lines, primary cells). Kind of data set: Growth inhibition experiments (MTT, 5 d), panel of cell lines. It is filed as cell-based. As to conditions: for growth inhibitory activity in cell lines (in words, compared to chondramides A~C / other derivatives): GI50-based comparison, panel of cell lines. The method, then: First, the compounds were tested on a small panel of cell lines derived from various origins and tissues. GI50 values were compared to those determined using chondramides A˜C (see Table 1).
as §3, §1
These compounds were profiled regarding their growth inhibitory potential in a panel of cancer cell lines. Natural chondramide A was used as reference:
Biological evaluation of group A derivatives. GI50 values [nM] were determined in a small panel of cancer cell lines.

Molecules are shown by their SMILES. “Also recorded” adds a separate entry of the source.

Usually melting point stands for the temperature, or range, at which the solid turns liquid. Molecule `C/C1=C\CCOC(=O)C[C@H](c2ccc(O)c(Br)c2)NC(=O)[C@@H](Cc2c[nH]c3ccccc23)N(C)C(=O)[C@H](C)NC(=O)CC1` had a melting point of 129 to 132 °C.

A word on the GI50: it is the concentration that inhibits growth by half. Consider `COC1C(=O)OC(C)C(C)C=C(C)CC(C)C(=O)NC(C)C(=O)N(C)C(Cc2c(Cl)[nH]c3ccccc23)C(=O)NC1c1ccc(OP(=O)(O)O)c(Cl)c1` (centres unmarked) [Chondramide A8], for which the “GI50 values KB-3.1” value in data set [1] amounted to 13.4 ± 3.0 nM. Further, the GI50 in data set [2] was 49.3 ± 7.6 nM; in data set [3], 33.2 ± 3.4 nM; in data set [4], 7.6 ± 4.7 nM; in data set [5], 24.1 ± 7.9 nM; in the data set with L-929, 56.2 ± 12.5 nM. In addition, in [6], the “actin-polymerizing effect (G-actin polymerization in vitro)” value (“actin-polymerizing effect” for short) is “significantly reduced actin-polymerizing effect”. In addition, the “GI50 values KB-V.1” value in [7] is reported as 58.1 ± 4.0 nM. Further, the “growth inhibitory activity in cell lines (in words, compared to chondramides A~C / other derivatives)” value in [8] was “comparable to chondramides A˜C”.

Consider `COC1C(=O)OC(C)C(C)C=C(C)CC(C)C(=O)NC(C)C(=O)N(C)C(Cc2c[nH]c3ccccc23)C(=O)NC1c1ccc(OC2OC(C(=O)O)C(O)C(O)C2O)c(Cl)c1` (centres unmarked) [Chondramide A9], for which the “actin-polymerizing effect” value in data set [6] is given as “does not show any actin-polymerizing effect”. Further, the “GI50 values L-929” value with L-929 was “w.a”. In addition, the “GI50 values KB-V.1” value in data set [7] is listed as “w.a”. In addition, the “growth inhibitory activity in cell lines (in words, compared to chondramides A~C / other derivatives)” value in data set [8] is listed as “significantly reduced”.

Regarding `CCC1OC(=O)CC(c2ccc(O)cc2)NC(=O)C(Cc2c[nH]c3ccccc23)N(C)C(=O)C(C)NC(=O)C(C)CC(C)=CC1C` (centres unmarked) [Propionyl-Chondramide C1], in data set [1], the “GI50 values KB-3.1” value was determined as 56.3 ± 9.6 nM. The GI50 in data set [2] was determined as 42.1 ± 3.2 nM; in data set [3], 15.1 ± 1.1 nM; in data set [4] it was 71.9 ± 4.1 nM; in [5], 54.6 ± 5.5 nM; in the data set with L-929 it was 30 ± 7.7 nM. In addition, the “actin-polymerizing effect” value in data set [6] is on record as “significantly reduced actin-polymerizing effect”. Also, the “GI50 values KB-V.1” value in data set [7] is recorded as 22.7 ± 8.3 nM. Besides, the “growth inhibitory activity in cell lines (in words, compared to chondramides A~C / other derivatives)” value in data set [8] is on record as “comparable to chondramides A˜C”.

Consider `C/C1=C\CCOC(=O)C[C@H](c2ccc(O)c(Cl)c2)NC(=O)[C@@H](Cc2c(Cl)[nH]c3ccccc23)N(C)C(=O)[C@H](C)NC(=O)CC1`, for which the melting point lay in the range of 135 to 139 °C.

As for `COC1C(=O)OC(C)C(C)C=C(C)CC(C)C(=O)NC(C)C(=O)N(C)C(Cc2c(Cl)[nH]c3ccccc23)C(=O)NC1c1ccc(OP(=O)(O)O)cc1` (centres unmarked) [Chondramide A6], the “GI50 values KB-3.1” value in data set [1] is on record as 49.3 ± 7.6 nM. The GI50 in data set [2] amounted to 60.9 ± 3.5 nM; in data set [3], 51.6 ± 4.6 nM; in data set [4], 25.9 ± 1.5 nM; in data set [5], 67.7 ± 10.4 nM; with L-929, 44.6 ± 5.5 nM. Also, in data set [6], the “actin-polymerizing effect” value is on record as “significantly reduced actin-polymerizing effect”. The “GI50 values KB-V.1” value in [7] came out at 23.1 ± 1.5 nM. In data set [8], the “growth inhibitory activity in cell lines (in words, compared to chondramides A~C / other derivatives)” value is listed as “comparable to chondramides A˜C”.

On to `COC1C(=O)OC(C)C(C)C=C(C)CC(C)C(=O)NC(C)C(=O)N(C)C(Cc2c[nH]c3ccccc23)C(=O)NC1c1ccc(O)c(Cl)c1` (centres unmarked) [Chondramide A3], for which the “GI50 values KB-3.1” value in [1] is reported as 63.5 ± 12.6 nM. Besides, the GI50 was found to be 28.6 ± 3.9 nM in data set [2]; 46.7 ± 6.5 nM in data set [3]; 38 ± 2.8 nM in data set [4]; 50.5 ± 5.6 nM in [5]; 72.8 ± 3.6 nM in the data set on L-929. Besides, the “actin-polymerizing effect” value in data set [6] is reported as “significantly reduced actin-polymerizing effect”. Moreover, the “GI50 values KB-V.1” value in [7] came out at 85.7 ± 1.4 nM. In data set [8], the “growth inhibitory activity in cell lines (in words, compared to chondramides A~C / other derivatives)” value was “comparable to chondramides A˜C”.

As to `CC1=CC(C)C(C)OC(=O)C(O)C(c2ccc(O)c(Cl)c2)NC(=O)C(Cc2c(Cl)[nH]c3ccccc23)N(C)C(=O)C(C)NC(=O)C(C)C1` (centres unmarked) [Chondramide E4], the “GI50 values KB-3.1” value in data set [1] is on record as 627.2 ± 122.5 nM. Moreover, the GI50 in [2] stood at 379 ± 30.2 nM; in data set [3] it was 352 ± 30.6 nM; in data set [4] it was 480 ± 63.6 nM; in [5], 207 ± 26.4 nM; in the data set with L-929, 555 ± 81.6 nM. Besides, the “actin-polymerizing effect” value in data set [6] is on record as “decreased ability to polymerize actin”. Further, in [7], the “GI50 values KB-V.1” value amounted to 251.5 ± 79.1 nM.

On to `COC1C(=O)OC(C)C(C)C=C(C)CC(C)C(=O)NC(C)C(=O)N(C)C(Cc2c(Cl)[nH]c3ccccc23)C(=O)NC1c1ccc(OC2OC(C(=O)O)C(O)C(O)C2O)c(Cl)c1` (centres unmarked) [Chondramide A10], for which the “GI50 values KB-3.1” value in data set [1] is given as “w.a”. Besides, the “GI50 values HUVEC” value in data set [5] is on record as “w.a”. Besides, the “actin-polymerizing effect” value in data set [6] was “slow increase in G-actin polymerization; also recorded: partly restore the ability to polymerize actin”. The “GI50 values KB-V.1” value in [7] is reported as “w.a”. The “growth inhibitory activity in cell lines (in words, compared to chondramides A~C / other derivatives)” value in data set [8] is reported as “significantly reduced”.

As to `COC1C(=O)OC(C)C(C)C=C(C)CC(C)C(=O)NC(C)C(=O)N(C)C(Cc2c[nH]c3ccccc23)C(=O)NC1c1ccc(O)c(Br)c1` (centres unmarked) [Bromo-Chondramide A3], the “GI50 values KB-3.1” value in [1] amounted to 74.5 ± 14.2 nM. The GI50 in data set [2] was determined as 42.9 ± 3.2 nM; in data set [3], 37.7 ± 2.8 nM; in data set [4], 44.5 ± 4.9 nM; in [5], 32.7 ± 2.9 nM; with L-929, 69.4 ± 1.5 nM. Also, the “actin-polymerizing effect” value in data set [6] is recorded as “quickly polymerizes G-actin”. In data set [7], the “GI50 values KB-V.1” value came to 11.2 ± 0.4 nM. Besides, the “GI50 values on human cancer cell lines” value in [8] (human cancer cell lines, cell-based studies) was “low nanomolar range”.

The molecule `C/C1=C\CCOC(=O)C[C@H](c2ccc(O)c(Cl)c2)NC(=O)[C@@H](Cc2c[nH]c3ccccc23)N(C)C(=O)[C@H](C)NC(=O)CC1` gave a melting point of 122 to 126 °C.

The values are drawn from patent US20150291658A1, “NOVEL CHONDRAMIDE DERIVATIVES” (HELMOLTZ-ZENTRUM FÜR INFEKTIONSFORSCHUNG, priority 2012, published 2015).
